Assay results: patent publication US20090004145A1, “COMPOSITIONS AND METHODS INVOLVING GENE THERAPY AND PROTEASOME MODULATION” (priority 2006, published 2009)
≈ marks a conversion by molar mass, not a printed value. Where two headings read alike, the source gives them in different places. *1 amine or outer side, *2 acyl side, *3 side chain or, on linkers, in order; H or OH if unused. Where a SMILES comes first, the peptide text is derived from it. Bridges are numbered along the chain shown (N, C = ends). Roman numbers before positions name the chains, in order. [ ]: non-standard residue; d: D form. Actinocin(9to1) = Cc1c2oc3c(C)ccc(C(=O)[*:1])c3nc-2c(C(=O)[*:2])c(N)c1=O; NMeV = CN[C@H](C(=O)O)C(C)C; Sar = CNCC(=O)O

Experiments:
[1] = in vivo; cited from earlier work
[2] = test system: chronic myelogenous leukemia; conditions: adults with previously untreated chronic myelogenous leukemia; cited from earlier work
[3] = test system: 2008 cells; test: XTT cell viability assay of CDDP-treated ovarian cancer cell lines; assay type: cell-based, human; conditions: CDDP 1 h, then 72 h incubation
Procedure: (§1) FIG. 1. Determination of IC50 values for CDDP-Treated Ovarian Cancer Cell Lines. Human ovarian tumor (2008 and 2008/C*13R) tumor cells (2×10^3) seeded in 96-well plates were treated with various doses of CDDP (0, 10, 20, 30, 60, 80, 100 μM). After 1 h of treatment, CDDP containing medium was removed and fresh medium added to the wells. Cells were incubated for 72 h following which were subjected to XTT assay to determine cell viability. Untreated cells served as controls.
as §1, with “Determination” for “FIG. 1. Determination”, “controls. […] (FIG. 1)” for “controls.”

[4] = test system: 2008/C*13R cells; test: as above; assay type: cell-based, human; conditions: CDDP 1 h, then 72 h incubation
Procedure: as §1
as §1, with “Determination” for “FIG. 1. Determination”, “controls. […] (FIG. 1)” for “controls.”

[5] = test system: 2008 cells; test: Tumor cell killing, trypan blue assay; assay type: cell-based, human; conditions: CDDP 25 μM, vector 3000 vp/cell, 72 h
Procedure: FIG. 3. Ad-mda7 plus CDDP treatment sensitizes CDDP-resistant tumor cells. CDDP-resistant (2008/C*13 R) and sensitive (2008) ovarian tumor cells were plated in six-well plates and treated with PBS, CDDP (25 μM) Ad-luc, Ad-mda7 (3000 vp/cell), Ad-mda7 plus CDDP or Ad-luc plus CDDP. Treatment schedule was as follows: pretreatment with CDDP for 1 h, washed with PBS to remove any residual CDDP and then infect with Ad-mda7 for 3 h in serum free medium followed by replenishment of complete medium. Cells were harvested at 72 h after treatment and number of dead cells counted by the trypan blue assay.
FIG. 8. CDDP-resistant tumor cells are more sensitive to Ad-mda7. […] Cells were harvested on day 3 and day 5 after treatment and number of dead cells counted by the trypan blue assay and analyzed for apoptotic markers by western blotting. […]
Next, CDDP-resistant (2008/C*13 R) and sensitive (2008) ovarian tumor cells were plated in six-well plates and treated with PBS, CDDP (25 μM) Ad-luc, Ad-mda7 (3000 vp/cell), Ad-mda7 plus CDDP or Ad-luc plus CDDP. […] Cells were harvested at 72 h after treatment and number of dead cells counted by the trypan blue assay.
CDDP-Resistant Tumor Cells are More Sensitive to Ad-mda7. […] Cells were harvested on day 3 and day 5 after treatment and number of dead cells counted by the trypan blue assay and analyzed for apoptotic markers by western blotting. […]

[6] = in vivo; cited from earlier work; remark: listed apart in the source
[7] = cited from earlier work
[8] = 15 minutes after intravenous administration; cited from earlier work
[9] = test system: multiple myeloma; conditions: oral administration; cited from earlier work
[10] = humans, intravenous administration; cited from earlier work
[11] = test system: Hodgkin's disease; conditions: cited from earlier work
[12] = usual clinical doses; cited from earlier work
[13] = mice; cited from earlier work
[14] = cited from earlier work; remark: listed apart in the source

Compound: Cc1c2oc3c(C)ccc(C(=O)N[C@@H]4C(=O)N[C@H](C(C)C)C(=O)N5CCC[C@H]5C(=O)N(C)CC(=O)N(C)[C@@H](C(C)C)C(=O)O[C@@H]4C)c3nc-2c(C(=O)N[C@@H]2C(=O)N[C@H](C(C)C)C(=O)N3CCC[C@H]3C(=O)N(C)CC(=O)N(C)[C@@H](C(C)C)C(=O)O[C@@H]2C)c(N)c1=O [Actinomycin D] (I: T[dV]P[Sar][NMeV] / II: T[dV]P[Sar][NMeV]; ester I:1-I:C, II:1-II:C; linker I:N-II:N via Actinocin(9to1))
- passage of the blood-brain barrier [1]: does not pass the blood-brain barrier

Compound: CS(=O)(=O)OCCCCOS(C)(=O)=O [Busulfan, 1,4-butanediol dimethanesulfonate]
- patients obtaining hematologic remission [2]: Approximately 90%

Compound: [NH2][Pt]([NH2])([Cl])[Cl] [CDDP, Cisplatin]
- IC50 [3]: 30 µM
- IC50 [4]: 145 µM
- percent killing [5]: similar
- oral absorption [6]: not absorbed orally

Compound: CC[C@@]1(O)C(=O)OCc2c1cc1n(c2=O)Cc2cc3ccccc3nc2-1 [Camptothecin]
- solubility (clear yellow solution) ([7]; camptothecin in DMSO 1N sodium hydroxide): 50 mg/mL (≈ 144 mM)
- storage stability ([7]; camptothecin, 2-8° C., dry, airtight, light-resistant): at least two
- water solubility ([7]; camptothecin): poor water-solubility

Compound: O=NN(CCCl)C(=O)NCCCl [Carmustine, 1,3bis-(2-chloroethyl)-1-nitrosourea]
- solubility in water ([7]; carmustine): poorly soluble

Compound: O=NN(CCCl)C(=O)NC1CCCCC1 [Lomustine, 1-(2-chloro-ethyl)-3-cyclohexyl-1 nitrosourea]
- tissue levels [8]: comparable to plasma levels
- ionization at a physiological pH ([7]; lomustine): relatively unionized
- solubility in 10% ethanol ([7]; lomustine): 0.05 mg per ml
- solubility in absolute alcohol ([7]; lomustine): 70 mg per ml
- solubility in water ([7]; lomustine): < 0.05 mg per ml

Compound: N[C@@H](Cc1ccc(N(CCCl)CCCl)cc1)C(=O)O [Melphalan, 4-[bis(2-chloroethyl)amino]-L-phenylalanine]
- patients showing a favorable response [9]: about one third to one half
- solubility in water ([7]; melphalan): insoluble in water

Compound: CO[C@@]12[C@H](COC(N)=O)C3=C(C(=O)C(C)=C(N)C3=O)N1C[C@@H]1N[C@@H]12 [Mitomycin]
- heat stability ([7]; mitomycin): heat stable
- clearance from the serum [10]: rapidly cleared

Compound: CC[C@]1(O)C[C@@H]2CN(CCc3c([nH]c4ccccc34)[C@@](C(=O)OC)(c3cc4c(cc3OC)N(C)[C@H]3[C@@](O)(C(=O)OC)[C@H](OC(C)=O)[C@]5(CC)C=CCN6CC[C@]43[C@@H]65)C2)C1 [Vinblastine]
- cases with significant improvement [11]: 50 to 90%

Compound: CC[C@]1(O)C[C@H]2CN(CCc3c([nH]c4ccccc34)[C@@](C(=O)OC)(c3cc4c(cc3OC)N(C=O)[C@H]3[C@@](O)(C(=O)OC)[C@H](OC(C)=O)[C@]5(CC)C=CCN6CC[C@]43[C@@H]65)C2)C1 [Vincristine]
- peak concentration in plasma [12]: approximately 0.4 mM

Compound: Bleomycin
- concentrations in hematopoietic tissue / bone marrow [13]: low concentrations
- concentrations in skin, lungs, kidneys, peritoneum and lymphatics [13]: high concentrations
- administered dose recovered in the urine as active bleomycin ([14]; humans): 60% to 70
- plasma or serum terminal elimination half-life ([14]; patients with creatinine clearance <35 mL per minute, as clearance decreases): increases exponentially
- solubility in water ([7]; bleomycin): freely soluble in water
